The values below come from patent US20030186997A1, “2,5-Dihydro-pyrazolo[3,4-d]pyrimidin-4-ones with an anticonsulsive action and methods for producing the same” (priority 2000, published 2003).

The test system of data set [1] is maximal electroshock. The experiment in a line: Anticonvulsant action, maximal electroshock (MES), mouse i.p. It is filed as in vivo. As to conditions: ip, read-out: Action in % of the protected animals. On the procedure:
(§1) The compounds according to the invention were tested for their anticonvulsant action in vivo after i.p. administration to mice according to the international customary standard (Pharmac. Weekblad, Sc. Ed. 14, 132 (1992) and Antiepileptic Drugs, Third Ed., Raven Press, New York 1989) (Table 1). [table]
For orientation: Protection in the maximal electroshock model is a classic sign of anticonvulsant action.

The test system of a further data set is s.c. pentetrazole. The experiment in a line: Anticonvulsant action, s.c. pentetrazole (PTZ), mouse i.p. As to conditions: ip, read-out: Action in % of the protected animals. It is filed as in vivo. How it is done:
as §1

A short description of data set [2]: Octanol/water partition coefficient. It is filed as physicochemical.
Data set [3] deals with maximal electroshock. The experiment in a line: Maximal electroshock in the rat, p.o. It is filed as in vivo. The conditions noted are these: po. On the procedure:
(§2) This compound is also active in convulsion models using bicuculline and picrotoxin as convulsion-inducing cause. Compound 14 (5-(2-methylbenzyl)-2-methyl-2,5-dihydropyrazolo[3,4-d]pyrimidin-4-one) is likewise strongly anticonvulsant with a large therapeutic breadth (ED50 (rat p.o.) =9 mg/kg, NT50>300 mg/kg). Compound 21 has a similar pharmacological profile (ED50 (rat p.o.) =3 mg/kg, NT50>300 mg/kg).

The next data set is described as follows: Neurotoxicity (NT50). The conditions noted are these: rat. It is filed as in vivo. How it is done: as §2
For the next data set, the system named is bicuculline. The data set can be described thus: Convulsion model using bicuculline. It is filed as in vivo. The conditions noted are these: bicuculline as convulsion-inducing cause. On the procedure:
as §2

Another data set deals with picrotoxin. It is filed as in vivo. How it is done:
as §2

Structures are written as SMILES. Some results are limits rather than exact numbers.

Usually logP stands for the decadic logarithm of the partition coefficient of the neutral form, usually between octanol and water. Read a high logP as higher lipophilicity. The term melting point denotes the temperature of the solid-liquid transition. As a reminder, the ED50 is the dose at which the effect has come halfway, by size or by number of responders. A low value points to an effect at a small dose.

For the compound `O=c1c2c[nH]nc2ncn1Cc1ccc(Cl)cc1Cl` [Compound 4, 5-(2,4-dichlorobenzyl)-2,5-dihydropyrazolo[3,4-d]-pyrimidin-4-one], the melting point fell in the range of 236 to 237 °C. Besides, the responders at 100 mg/kg in the data set on maximal electroshock [1] stood at 100%. For the same compound, in the data set on s.c. pentetrazole, the responders at 300 mg/kg amounted to 40%. Further, the logP in data set [2] stood at 1.96.
In the same order, the values of `COc1ccccc1Cn1cnc2nn(C)cc2c1=O` [Compound 17, 5-(2-methoxybenzyl)-2-methyl-2,5-dihydropyrazolo[3,4-d]-pyrimidin-4-one] are 160 to 162 °C, 100%, 100% and 0.92.
On to `CCCC(CCC)C(=O)O` [Valproate, reference compound], for which the responders at 100 mg/kg in the data set with maximal electroshock [1] is 0%; in the data set with s.c. pentetrazole, 30%.
As to `Cn1cc2c(=O)n(Cc3ccccc3)cnc2n1` [Compound 13, 5-benzyl-2-methyl-2,5-dihydropyrazolo[3,4-d]pyrimidin-4-one], the melting point was 202 to 204 °C. The responders at 100 mg/kg in the data set on maximal electroshock [1] stood at 100%. For the same compound, the log partition coefficient (logP) in data set [2] turned out to be 0.72.
`O=c1c2c[nH]nc2ncn1Cc1ccccc1C(F)(F)F` [Compound 8, 5-(2-trifluoromethylbenzyl)-2,5-dihydropyrazolo[3,4-d]-pyrimidin-4-one] had a melting point of 168 to 171 °C. Further, in the data set on maximal electroshock [1], the responders at 100 mg/kg stood at 67%. For the same compound, in the data set on s.c. pentetrazole, the responders at 100 mg/kg is 20%. In addition, the logP in data set [2] was 0.78.
`Cn1cc2c(=O)n(Cc3cccc(Cl)c3)cnc2n1` [Compound 19, 5-(3-chlorobenzyl) -2-methyl-2,5-dihydropyrazolo[3,4-d]-pyrimidin-4-one]: the melting point is 169 to 170 °C. For the same compound, the responders at 100 mg/kg with maximal electroshock [1] was determined as 100%. The same compound returned a logP in data set [2] of 1.56.
On to `O=c1c2c[nH]nc2ncn1Cc1ccc(F)cc1` [Compound 3, 5-(4-fluorobenzyl)-2,5-dihydropyrazolo[3,4-d]pyrimidin-4-one], for which the melting point lay in the range of 260 to 261 °C. Further, in the data set on maximal electroshock [1], the responders at 100 mg/kg is 33%. Besides, the responders at 300 mg/kg with s.c. pentetrazole stood at 60%. In data set [2], this compound gave a logP of 0.62.
`O=c1c2c[nH]nc2ncn1Cc1ccccc1` [5-benzyl-2,5-dihydropyrazolo[3,4-d]pyrimidin-4-one, reference compound]: the responders at 30 mg/kg in the data set on maximal electroshock [1] and in the data set on s.c. pentetrazole (dose 30 mg/kg) was 100% each time. The same compound displayed a logP in data set [2] of 0.47.
Turning to `CC(C)n1cc2c(=O)n(Cc3c(F)cccc3Cl)cnc2n1` [Compound 43, 5-(2-chloro-6-fluorobenzyl)-2-isopropyl-2,5-dihydropyrazolo[3,4-d]pyrimidin-4-one], the melting point lay within 159 to 161 °C. In the data set with maximal electroshock [1] (dose 300 mg/kg), the responders at 300 mg/kg was determined as 100%. In addition, the responders at 300 mg/kg with s.c. pentetrazole turned out to be 33%. Also, the logP in data set [2] was determined as 1.88.
`Cc1ccccc1Cn1cnc2nn(C)cc2c1=O` [Compound 14, 5-(2-methylbenzyl)-2-methyl-2,5-dihydropyrazolo[3,4-d]-pyrimidin-4-one] returned a melting point of 185 to 186 °C. Moreover, in the data set on maximal electroshock [1], the responders at 30 mg/kg was found to be 100%. For the same compound, the responders at 100 mg/kg with s.c. pentetrazole came to 80%. In data set [2], the logP came out at 1.76. The same compound yielded an ED50 in the data set on maximal electroshock [3] of 9 mg/kg.
With `CCn1cc2c(=O)n(Cc3c(F)cccc3F)cnc2n1` [Compound 37, 5-(2,6-difluorobenzyl)-2-ethyl-2,5-dihydropyrazolo[3,4-d]-pyrimidin-4-one], the melting point was 185 to 187 °C. The responders at 100 mg/kg in the data set with maximal electroshock [1] amounted to 80%. Moreover, the responders at 300 mg/kg in the data set with s.c. pentetrazole stood at 20%. Moreover, the logP in data set [2] stood at 1.43.
`O=c1c2c[nH]nc2ncn1Cc1ccc(Cl)cc1` [Compound 2, 5-(4-chlorobenzyl)-2,5-dihydropyrazolo[3,4-d]pyrimidin-4-one]: the melting point lay in the range of 246 to 247 °C. In addition, the responders at 100 mg/kg with maximal electroshock [1] stood at 33%. Besides, the logP in data set [2] was 1.34.
`O=c1c2cn(CC3CCCO3)nc2ncn1Cc1ccccc1Cl` (centres unmarked) [Compound 60, 5-(2-chlorobenzyl)-2-tetrahydrofuran-2-ylmethyl-2,5-dihydropyrazolo[3,4-d]pyrimidin-4-one] showed a melting point of 128 to 130 °C. The responders at 100 mg/kg in the data set on maximal electroshock [1] came out at 67%. The same compound showed a logP in data set [2] of 1.67.
Take `NC(=O)N1c2ccccc2C=Cc2ccccc21` [Carbamazepine, reference compound]: the responders at 100 mg/kg came out at 100% with maximal electroshock [1] and 0% in the data set with s.c. pentetrazole.
In the case of `O=c1c2c[nH]nc2ncn1Cc1c(F)cccc1F` [Compound 5, 5-(2,6-difluorobenzyl)-2,5-dihydropyrazolo[3,4-d]-pyrimidin-4-one], the melting point was 214 to 216 °C. Also, the responders at 30 mg/kg in the data set on maximal electroshock [1] turned out to be 100%. The compound also yielded a logP in data set [2] of 0.28.
For the compound `Cn1cc2c(=O)n(Cc3ccncc3)cnc2n1` [Compound 34, 5-(4-pyridinylmethyl)-2-methyl-2,5-dihydropyrazolo[3,4-d]-pyrimidin-4-one], the melting point lay within 192 to 195 °C.
Compound `Cn1cc2c(=O)n(Cc3c(F)cccc3F)cnc2n1` [Compound 21, 5-(2,6-difluorobenzyl)-2-methyl-2,5-dihydropyrazolo[3,4-d]pyrimidin-4-one] showed a melting point of 226 to 228 °C. The responders at 30 mg/kg with maximal electroshock [1] was found to be 100%. The responders at 100 mg/kg in the data set with s.c. pentetrazole was 80%. The same compound came in with a log partition coefficient (logP) in data set [2] of 0.67. In the data set on maximal electroshock [3], this compound displayed an ED50 of 3 mg/kg.
With `CCCn1cc2c(=O)n(Cc3c(F)cccc3Cl)cnc2n1` [Compound 39, 5-(2-chloro-6-fluorobenzyl)-2-propyl-2,5-dihydropyrazolo[3,4-d]pyrimidin-4-one], the melting point is 163 to 165 °C.
For the compound `O=c1c2cn(Cc3ccccc3Cl)nc2ncn1Cc1ccccc1Cl` [Compound 58, 2,5-bis(2-chlorobenzyl)-2,5-dihydropyrazolo[3,4-d]-pyrimidin-4-one], the melting point lay within 167 to 168 °C. This compound also had a lipophilicity (logP) in data set [2] of 2.59.
Take `O=c1c2c[nH]nc2ncn1Cc1ccccn1` [Compound 10, 5-(2-pyridinylmethyl)-2,5-dihydropyrazolo[3,4-d]-pyrimidin-4-one]: the melting point lay within 224 to 225 °C.
On to `O=c1c2c[nH]nc2ncn1Cc1ccccc1Cl` [Compound 1, 5-(2-chlorobenzyl)-2,5-dihydropyrazolo[3,4-d]pyrimidin-4-one], for which the melting point lay in the range of 186 to 187 °C. In addition, the responders at 30 mg/kg with maximal electroshock [1] turned out to be 100%. Moreover, the responders at 100 mg/kg in the data set on s.c. pentetrazole was 80%. Moreover, the logP in data set [2] was 1.14. This compound also showed an ED50 in the data set with maximal electroshock [3] of 18 mg/kg. Also, in “Neurotoxicity (NT50)”, the “NT50 (neurotoxicity)” value is over 500 mg/kg. Also, the “activity in convulsion model” value with bicuculline was “active”. For the same compound, in the data set on picrotoxin, the “activity in convulsion model” value is “active”.
The compound `CCCCn1cc2c(=O)n(Cc3ccc(C)cc3)cnc2n1` [Compound 48, 5-(4-methylbenzyl)-2-butyl-2,5-dihydropyrazolo[3,4-d]-pyrimidin-4-one] displayed a melting point of 146 to 147 °C.
In turn, `Cc1ccccc1Cn1cnc2n[nH]cc2c1=O` [Compound 6, 5-(2-methylbenzyl)-2,5-dihydropyrazolo[3,4-d]pyrimidin-4-one] displayed a melting point of 221 to 222 °C. In addition, the responders at 100 mg/kg with maximal electroshock [1] is 67%. Also, in the data set with s.c. pentetrazole, the responders at 300 mg/kg amounted to 100%. For the same compound, the logP in data set [2] was 1.36.
